How the values were obtained:
[1] = biological target: Aurora kinase A (Homo sapiens) (UniProt O14965); assay: Inhibition of AURKA (unknown origin) assessed as remaining activity at 10 uM by high-throughput assay relative to control
[2] = biological target: Mitogen-activated protein kinase 11 (Homo sapiens) (UniProt Q15759); assay: Inhibition of p38-beta (unknown origin) assessed as remaining activity at 10 uM by high-throughput assay relative to control
[3] = biological target: SRSF protein kinase 3 (Homo sapiens) (UniProt Q9UPE1); assay: Inhibition of SRPK3 (unknown origin) assessed as remaining activity at 10 uM by high-throughput assay relative to control
[4] = test system: Serine/threonine-protein kinase B-raf (Homo sapiens), P15056 [V600E]; assay: Inhibition of BRAF V600E mutant (unknown origin) assessed as remaining activity at 10 uM by high-throughput assay relative to control
[5] = biological target: Rho-associated protein kinase 2 (Homo sapiens) (UniProt O75116); assay: Inhibition of ROCK2 (unknown origin) assessed as remaining activity at 10 uM by high-throughput assay relative to control
[6] = biological target: Cyclin-dependent kinase 3 (Homo sapiens) (UniProt Q00526); assay: Inhibition of CDK3 (unknown origin) assessed as remaining activity at 10 uM by high-throughput assay relative to control
[7] = biological target: Serine/threonine-protein kinase ULK2 (Homo sapiens) (UniProt Q8IYT8); assay: Inhibition of ULK2 (unknown origin) assessed as remaining activity at 10 uM by high-throughput assay relative to control
[8] = biological target: Ephrin type-A receptor 2 (Homo sapiens) (UniProt P29317); assay: Inhibition of EPHA2 (unknown origin) assessed as remaining activity at 10 uM by high-throughput assay relative to control
[9] = biological target: Receptor tyrosine-protein kinase erbB-2 (Homo sapiens) (UniProt P04626); assay: Inhibition of ERBB2 (unknown origin) assessed as remaining activity at 10 uM by high-throughput assay relative to control
[10] = biological target: Tyrosine-protein kinase ABL1 (Homo sapiens) (UniProt P00519); assay: Inhibition of ABL1 phosphorylation (unknown origin) assessed as remaining activity at 10 uM by high-throughput assay relative to control
[11] = biological target: MAP/microtubule affinity-regulating kinase 3 (Homo sapiens) (UniProt P27448); assay: Inhibition of MARK3 (unknown origin) assessed as remaining activity at 10 uM by high-throughput assay relative to control
[12] = biological target: Mast/stem cell growth factor receptor Kit (Homo sapiens) (UniProt P10721); assay: Inhibition of KIT (unknown origin) assessed as remaining activity at 10 uM by high-throughput assay relative to control
[13] = biological target: Platelet-derived growth factor receptor alpha (Homo sapiens) (UniProt P16234); assay: Inhibition of PDGFRA (unknown origin) assessed as remaining activity at 10 uM by high-throughput assay relative to control
[14] = biological target: Platelet-derived growth factor receptor beta (Homo sapiens) (UniProt P09619); assay: Inhibition of PDGFRB (unknown origin) assessed as remaining activity at 10 uM by high-throughput assay relative to control
[15] = biological target: Fibroblast growth factor receptor 3 (Homo sapiens) (UniProt P22607); assay: Inhibition of FGFR3 (unknown origin) assessed as remaining activity at 10 uM by high-throughput assay relative to control
[16] = biological target: Serine/threonine-protein kinase PLK1 (Homo sapiens) (UniProt P53350); assay: Inhibition of PLK1 (unknown origin) assessed as remaining activity at 10 uM by high-throughput assay relative to control
[17] = biological target: Cyclin-dependent kinase 9 (Homo sapiens) (UniProt P50750); assay: Inhibition of CDK9 (unknown origin) assessed as remaining activity at 10 uM by high-throughput assay relative to control
[18] = biological target: RAF proto-oncogene serine/threonine-protein kinase (Homo sapiens) (UniProt P04049); assay: Inhibition of RAF1 (unknown origin) assessed as remaining activity at 10 uM by high-throughput assay relative to control
[19] = biological target: Serine/threonine-protein kinase PAK 4 (Homo sapiens) (UniProt O96013); assay: Inhibition of PAK4 (unknown origin) assessed as remaining activity at 10 uM by high-throughput assay relative to control
[20] = biological target: Tyrosine-protein kinase ABL1 (Homo sapiens) (UniProt P00519); assay: Inhibition of ABL1 (unknown origin) assessed as remaining activity at 10 uM by high-throughput assay relative to control
[21] = biological target: Tyrosine-protein kinase ZAP-70 (Homo sapiens) (UniProt P43403); assay: Inhibition of ZAP70 (unknown origin) assessed as remaining activity at 10 uM by high-throughput assay relative to control
[22] = biological target: MAP kinase-interacting serine/threonine-protein kinase 2 (Homo sapiens) (UniProt Q9HBH9); assay: Inhibition of MKNK2 (unknown origin) assessed as remaining activity at 10 uM by high-throughput assay relative to control
[23] = biological target: Atypical kinase COQ8A, mitochondrial (Homo sapiens) (UniProt Q8NI60); assay: Inhibition of ADCK3 (unknown origin) assessed as remaining activity at 10 uM by high-throughput assay relative to control
[24] = biological target: Aurora kinase B (Homo sapiens) (UniProt Q96GD4); assay: Inhibition of AURKB (unknown origin) assessed as remaining activity at 10 uM by high-throughput assay relative to control
[25] = biological target: Proto-oncogene tyrosine-protein kinase receptor Ret (Homo sapiens) (UniProt P07949); assay: Inhibition of RET (unknown origin) assessed as remaining activity at 10 uM by high-throughput assay relative to control

Tyrosine-protein kinase ABL1 (Homo sapiens), sequence (P00519 whole entry): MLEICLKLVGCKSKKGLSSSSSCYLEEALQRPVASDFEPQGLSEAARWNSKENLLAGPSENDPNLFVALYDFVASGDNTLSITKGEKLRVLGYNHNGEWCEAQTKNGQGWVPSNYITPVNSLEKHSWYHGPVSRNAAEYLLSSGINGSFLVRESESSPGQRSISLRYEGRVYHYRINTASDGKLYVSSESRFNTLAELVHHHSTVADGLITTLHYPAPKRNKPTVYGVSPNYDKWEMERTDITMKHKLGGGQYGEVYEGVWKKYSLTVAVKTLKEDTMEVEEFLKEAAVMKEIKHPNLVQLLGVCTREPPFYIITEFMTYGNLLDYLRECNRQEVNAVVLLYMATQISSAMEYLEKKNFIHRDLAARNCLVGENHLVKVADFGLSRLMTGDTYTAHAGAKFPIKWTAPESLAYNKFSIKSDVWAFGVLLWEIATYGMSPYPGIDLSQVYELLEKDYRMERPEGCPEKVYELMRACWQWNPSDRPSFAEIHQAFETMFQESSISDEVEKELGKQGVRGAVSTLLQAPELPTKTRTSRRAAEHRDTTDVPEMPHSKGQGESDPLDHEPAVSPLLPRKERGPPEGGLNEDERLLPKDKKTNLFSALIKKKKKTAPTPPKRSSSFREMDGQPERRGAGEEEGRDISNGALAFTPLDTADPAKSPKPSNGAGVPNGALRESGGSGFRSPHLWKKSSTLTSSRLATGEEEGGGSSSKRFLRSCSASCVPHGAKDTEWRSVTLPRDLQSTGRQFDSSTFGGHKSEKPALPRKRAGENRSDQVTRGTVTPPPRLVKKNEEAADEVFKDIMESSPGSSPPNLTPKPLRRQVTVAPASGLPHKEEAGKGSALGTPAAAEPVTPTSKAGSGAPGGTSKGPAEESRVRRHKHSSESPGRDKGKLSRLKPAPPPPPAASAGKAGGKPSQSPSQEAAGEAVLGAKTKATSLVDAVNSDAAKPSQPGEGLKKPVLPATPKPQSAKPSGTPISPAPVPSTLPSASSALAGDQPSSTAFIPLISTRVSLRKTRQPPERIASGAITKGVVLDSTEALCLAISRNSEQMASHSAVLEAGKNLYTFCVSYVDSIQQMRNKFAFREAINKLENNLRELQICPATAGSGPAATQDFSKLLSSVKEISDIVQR
Mitogen-activated protein kinase 11 (Homo sapiens), sequence (Q15759 whole entry): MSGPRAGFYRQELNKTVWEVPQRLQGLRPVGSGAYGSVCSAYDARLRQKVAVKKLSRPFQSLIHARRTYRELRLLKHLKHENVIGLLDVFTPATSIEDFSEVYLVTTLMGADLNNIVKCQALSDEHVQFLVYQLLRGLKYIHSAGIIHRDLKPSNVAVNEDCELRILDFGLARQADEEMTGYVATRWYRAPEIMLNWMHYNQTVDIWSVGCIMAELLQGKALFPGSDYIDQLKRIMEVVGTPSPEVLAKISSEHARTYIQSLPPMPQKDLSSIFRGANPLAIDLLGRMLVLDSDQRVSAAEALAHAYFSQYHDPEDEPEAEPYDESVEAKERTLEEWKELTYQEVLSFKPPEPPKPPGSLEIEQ
Atypical kinase COQ8A, mitochondrial (Homo sapiens), sequence (Q8NI60 163-647 limits assumed): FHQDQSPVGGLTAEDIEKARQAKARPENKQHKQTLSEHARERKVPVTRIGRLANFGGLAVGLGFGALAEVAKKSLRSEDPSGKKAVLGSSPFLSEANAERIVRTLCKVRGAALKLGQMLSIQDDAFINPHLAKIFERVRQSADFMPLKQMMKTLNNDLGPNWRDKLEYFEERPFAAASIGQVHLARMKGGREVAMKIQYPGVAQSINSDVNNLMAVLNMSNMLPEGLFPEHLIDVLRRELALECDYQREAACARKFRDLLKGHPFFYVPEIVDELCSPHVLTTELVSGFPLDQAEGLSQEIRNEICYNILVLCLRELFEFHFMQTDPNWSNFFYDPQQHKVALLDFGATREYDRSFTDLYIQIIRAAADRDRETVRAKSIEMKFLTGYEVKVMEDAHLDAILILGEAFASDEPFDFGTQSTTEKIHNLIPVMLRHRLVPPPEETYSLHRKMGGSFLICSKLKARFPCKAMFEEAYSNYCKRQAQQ
Tyrosine-protein kinase ZAP-70 (Homo sapiens), sequence (P43403 whole entry): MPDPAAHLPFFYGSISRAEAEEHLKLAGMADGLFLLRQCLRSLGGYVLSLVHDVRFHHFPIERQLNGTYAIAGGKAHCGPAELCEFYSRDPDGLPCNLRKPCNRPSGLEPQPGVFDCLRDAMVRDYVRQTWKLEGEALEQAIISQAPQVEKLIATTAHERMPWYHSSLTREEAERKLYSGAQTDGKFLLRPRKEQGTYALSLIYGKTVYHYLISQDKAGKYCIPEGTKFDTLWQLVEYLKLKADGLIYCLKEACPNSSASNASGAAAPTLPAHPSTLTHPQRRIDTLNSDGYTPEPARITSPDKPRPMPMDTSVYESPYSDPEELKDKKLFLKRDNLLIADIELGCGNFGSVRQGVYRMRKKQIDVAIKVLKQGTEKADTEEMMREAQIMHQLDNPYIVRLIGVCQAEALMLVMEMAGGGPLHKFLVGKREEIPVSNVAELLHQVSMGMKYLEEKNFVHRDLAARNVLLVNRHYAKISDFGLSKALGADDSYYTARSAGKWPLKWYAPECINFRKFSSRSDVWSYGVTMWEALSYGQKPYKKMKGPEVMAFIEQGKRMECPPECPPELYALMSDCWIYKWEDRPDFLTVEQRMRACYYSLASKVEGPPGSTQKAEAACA
Cyclin-dependent kinase 9 (Homo sapiens), sequence (P50750 whole entry): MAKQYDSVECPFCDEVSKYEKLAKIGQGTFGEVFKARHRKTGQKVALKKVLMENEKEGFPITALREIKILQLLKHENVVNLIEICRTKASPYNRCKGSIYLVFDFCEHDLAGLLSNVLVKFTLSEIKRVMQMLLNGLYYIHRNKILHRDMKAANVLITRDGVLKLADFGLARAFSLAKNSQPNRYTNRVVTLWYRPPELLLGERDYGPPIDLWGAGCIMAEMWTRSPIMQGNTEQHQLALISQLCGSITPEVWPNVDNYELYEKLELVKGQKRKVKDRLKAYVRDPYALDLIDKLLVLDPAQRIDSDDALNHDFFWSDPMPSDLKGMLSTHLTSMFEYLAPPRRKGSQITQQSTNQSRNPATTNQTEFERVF
SRSF protein kinase 3 (Homo sapiens), sequence (Q9UPE1 whole entry): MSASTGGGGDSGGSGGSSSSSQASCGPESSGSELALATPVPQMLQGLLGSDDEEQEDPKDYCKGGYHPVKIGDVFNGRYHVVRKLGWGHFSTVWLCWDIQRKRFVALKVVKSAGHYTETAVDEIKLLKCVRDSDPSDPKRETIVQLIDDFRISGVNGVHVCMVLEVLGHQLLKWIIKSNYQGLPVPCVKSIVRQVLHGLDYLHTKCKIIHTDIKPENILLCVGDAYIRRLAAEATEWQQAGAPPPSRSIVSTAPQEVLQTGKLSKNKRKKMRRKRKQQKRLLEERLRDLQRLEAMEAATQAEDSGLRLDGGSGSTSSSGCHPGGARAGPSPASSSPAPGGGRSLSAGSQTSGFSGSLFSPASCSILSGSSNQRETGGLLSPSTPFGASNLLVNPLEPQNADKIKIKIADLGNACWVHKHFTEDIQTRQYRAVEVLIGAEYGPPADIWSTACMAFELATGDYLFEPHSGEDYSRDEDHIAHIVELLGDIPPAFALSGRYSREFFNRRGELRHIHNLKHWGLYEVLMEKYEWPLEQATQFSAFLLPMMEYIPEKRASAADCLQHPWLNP
Rho-associated protein kinase 2 (Homo sapiens), sequence (O75116 whole entry, looked up): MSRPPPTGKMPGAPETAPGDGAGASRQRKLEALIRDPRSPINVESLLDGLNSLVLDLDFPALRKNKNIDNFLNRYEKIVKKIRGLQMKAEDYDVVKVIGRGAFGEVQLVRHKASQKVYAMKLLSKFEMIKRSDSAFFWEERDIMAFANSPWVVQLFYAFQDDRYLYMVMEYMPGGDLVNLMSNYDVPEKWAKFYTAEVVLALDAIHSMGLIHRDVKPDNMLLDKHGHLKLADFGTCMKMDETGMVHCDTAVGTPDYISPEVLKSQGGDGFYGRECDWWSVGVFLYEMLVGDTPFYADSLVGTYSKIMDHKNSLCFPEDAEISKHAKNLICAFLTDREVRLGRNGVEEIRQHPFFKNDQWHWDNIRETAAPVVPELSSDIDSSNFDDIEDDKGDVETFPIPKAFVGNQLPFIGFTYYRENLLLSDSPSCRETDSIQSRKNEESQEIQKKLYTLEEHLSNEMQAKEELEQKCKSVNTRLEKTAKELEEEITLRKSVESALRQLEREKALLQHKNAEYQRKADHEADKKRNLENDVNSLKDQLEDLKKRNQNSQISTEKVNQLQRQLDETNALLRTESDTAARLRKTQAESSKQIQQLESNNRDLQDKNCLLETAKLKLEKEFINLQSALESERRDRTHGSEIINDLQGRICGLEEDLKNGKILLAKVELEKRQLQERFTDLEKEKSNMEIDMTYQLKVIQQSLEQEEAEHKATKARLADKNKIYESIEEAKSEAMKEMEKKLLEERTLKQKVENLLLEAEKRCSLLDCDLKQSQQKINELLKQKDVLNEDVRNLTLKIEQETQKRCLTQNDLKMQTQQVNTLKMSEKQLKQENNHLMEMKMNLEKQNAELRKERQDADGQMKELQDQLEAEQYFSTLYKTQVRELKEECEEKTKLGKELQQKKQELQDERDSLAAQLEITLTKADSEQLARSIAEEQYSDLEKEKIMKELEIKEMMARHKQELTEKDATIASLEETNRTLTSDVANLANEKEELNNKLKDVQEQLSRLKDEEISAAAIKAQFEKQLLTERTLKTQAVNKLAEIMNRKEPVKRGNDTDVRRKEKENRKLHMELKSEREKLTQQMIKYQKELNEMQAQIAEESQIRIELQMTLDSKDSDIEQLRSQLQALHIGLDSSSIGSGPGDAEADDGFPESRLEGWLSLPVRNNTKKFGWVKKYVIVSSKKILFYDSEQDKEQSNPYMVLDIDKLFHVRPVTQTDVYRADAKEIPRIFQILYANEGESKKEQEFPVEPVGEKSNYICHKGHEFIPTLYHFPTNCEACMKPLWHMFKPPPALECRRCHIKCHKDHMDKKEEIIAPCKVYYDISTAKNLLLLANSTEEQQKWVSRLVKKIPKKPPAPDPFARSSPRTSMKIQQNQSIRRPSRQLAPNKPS

Activity [1]: 82%
Activity [2]: 79%
Activity [3]: 73%
Activity [4]: 72%
Activity [5]: 79%
Activity [6]: 91%
Activity [7]: 59%
Activity [8]: 80%
Activity [9]: 92%
Activity [10]: 98%
Activity [11]: 90%
Activity [12]: 38%
Activity [13]: 66%
Activity [14]: 45%
Activity [15]: 54%
Activity [16]: 38%
Activity [17]: 71%
Activity [18]: 92%
Activity [19]: 98%
Activity [20]: 95%
Activity [21]: 77%
Activity [22]: 59%
Activity [23]: 73%
Activity [24]: 66%
Activity [25]: 74%
SMILES: O=C1c2ccccc2-c2c1oc1ccccc1c2=O
